Experimental data from patent US20230270773A1, “METHODS OF TREATING CANCER WITH A STING AGONIST” (Immunesensor Therapeutics, Inc., priority 2019, published 2023).

Key:
[1] = test system: IFNα, IL-6, TNFα and other cytokines; assay: Plasma cytokine levels in cynomolgus monkeys; format: in vivo
Protocol: (§1) Male and female cynomolgus monkeys were assigned to groups and doses of Compound A were administered. Animals were dosed via subcutaneous injection at a volume of 2 mL/kg. The vehicle control article/diluent was phosphate-buffered saline (PBS).
Escalation of Compound A dose levels was tolerated up to 3.0 mg/kg/dose, with findings limited to increased body temperature and elevated IFNα, IL-6, and TNFα cytokine levels. IFNα, TNFα, and IL-6 levels were measured at 3, 6, and 12 hours post-dosing. Dose related but variable changes were observed. […] TNFα levels increased at 3 hours in the 1 mg/kg group. […] The cytokine responses are consistent with the predicted STING pathway activation.

[2] = Cynomolgus monkey toxicity and toxicokinetics, subcutaneous (Phases I-III, priming dose); format: in vivo, cynomolgus monkeys
Protocol: as §1

[3] = Metabolic stability in in vitro systems; format: in vitro ADME, and monkey; details: human, rat, mouse, dog, monkey
[4] = test system: syngeneic tumors; assay: Combination with PD-L1 antibody in multiple syngeneic tumor models; format: in vivo, mouse; details: tumors otherwise refractory to immune checkpoint inhibitors
Excerpt: Several of these studies are described in the examples below.

[5] = Protein binding in vitro; format: in vitro ADME; details: human
[6] = test system: AG104Ld (fibrosarcoma); assay: AG104LD PD-L1 antibody-resistant tumor model; format: in vivo, B6C3F1 mice; details: Compound A 0.5 mg/kg SC, days 4, 7, 11, 14, 18, 21; PD-L1 antibody 200 µg
Protocol: (§2) Compound A was evaluated alone and in combination with 200 µg of the PD-L1 antibody used in Example 6 in immune checkpoint blockade-resistant tumors. In these studies, mice were implanted with LL2 (lung cancer), 4T1 (breast cancer), AG104Ld (fibrosarcoma), and AG104A (fibrosarcoma) tumors. Following implantation, the animals were dosed intratumorally or subcutaneously with 0.5 mg/kg of Compound A alone or in combination with the PD-L1 antibody, as shown in the table below: […]

[7] = test system: AG104A (fibrosarcoma); assay: AG104A PD-L1 antibody-resistant tumor model; format: in vivo, B6C3F1 mice; details: Compound A 0.5 mg/kg SC, days 4, 7, 10, 14, 17, 21; PD-L1 antibody 200 µg
Protocol: as §2

[8] = test system: LL2 (lung cancer); assay: LL2 PD-L1 antibody-resistant tumor model; format: in vivo, C57BL/6 mice
Protocol: as §2

[9] = test system: B16 melanoma lung metastasis; assay: B16 melanoma lung metastasis model; format: in vivo, mouse; details: intratumoral days 5, 8, 11; PD-L1 antibody 200 µg
Protocol: A B16 melanoma lung metastasis model was used to evaluate the effect of Compound A on tumor metastasis. Compound A was administered intratumorally on days 5, 8, and 11 after tumor inoculation alone or in combination with a PD-L1 antibody (200 µg of the antibody used in Example 6).

[10] = Pharmacokinetics in mice, subcutaneous vs intravenous; details: mouse, in vivo
Protocol: (§3) The nonclinical pharmacokinetics (PK) of subcutaneously, intravenously, or intratumorally administered Compound A was investigated in mice at the doses of 0.1 and/or 0.5 mg/kg.

[11] = test system: MC38 (colon); assay: MC38 syngeneic tumor model; format: in vivo, mouse
[12] = Toxicological studies in the rat; format: in vivo
Excerpt: The toxicological evaluations of Compound A included studies in the rat and cynomolgus monkey (non-human primate [NHP]) and should be relevant to assessing potential human risk, as the STING pathway, the target of Compound A, is conserved across species.
The non-good laboratory practice (GLP) studies in the rat and NHP covered a broad range of doses and regimens. The objective of these studies was to evaluate the effects of Compound A following multiple ascending doses, single doses, and multiple doses.

[13] = test system: B16F10 melanoma; assay: B16F10 melanoma syngeneic tumor model; format: in vivo, C57BL/6 mice
Protocol: To assess therapeutic activity of Compound A, C57BL/6 immune competent mice received subcutaneous implants of B16F10 melanoma cells on the right flank. Five days later, when tumor volumes were between 50 and 100 mm^3, the mice were intratumorally dosed with 0.1, 0.3, or 1.0 µg (equivalent to 0.005, 0.015, or 0.05 mg/kg) of Compound A alone, or in combination with 200 µg of PD-L1 antibody (clone 10F.9G2 available from Bio-X-Cell (catalog # BE0101)). Dosing was repeated every 3-4 days for 4 total doses. […] Once again, the effect was enhanced when Compound A was administered together with the PD-L1 antibody.

[14] = Pharmacokinetics after intratumoral administration in B16F10 tumor bearing mice; format: in vivo; details: female B16F10 tumor bearing mice
Protocol: as §3

Nc1nc2c(ncn2[C@@H]2O[C@@H]3COP(=O)(O)OC4C(O)[C@H](n5cnc6c(N)ncnc65)O[C@@H]4COP(=O)(O)OC2C3OCC(F)(F)F)c(=O)[nH]1 (stereo partly shown) [Compound A]
IFNα levels ([1]; 1 mg/kg and 3 mg/kg groups, 3 and 6 hours post dosing): Moderate levels of IFNα
TNFα levels ([1]; 1 mg/kg group, 3 hours): increased
TNFα levels ([1]; 3 mg/kg and 10 mg/kg groups): Lower levels of TNFα
IL-6 increases ([1]; 3 mg/kg and 10 mg/kg, 12 hours postdose): persisted at 12 hours postdose
cytokine levels, time course ([1]; NHP, non-GLP studies of Example 2): increases in the first 3-6 hours with return to baseline in most cases by 6-24 hours
plasma IL-6 levels ([1]; all groups, 3 and 6 hours post dosing): Increases in plasma IL-6 levels
morbidity ([2]; 10 mg/kg/dose, Phase I): Morbidity was observed within 1 day
exposure (mean Cmax, AUC0-2, AUC0-8, AUC0-24) vs dose ([2]; 0.3 to 3 mg/kg/day, Day 1 of Phase II): generally dose-proportional
compound-related findings ([2]; 0.6 or 1.0 mg/kg/day): limited to a transient body temperature increase and mild to moderate clinical and anatomic pathology findings
tolerability ([2]; 3 weekly doses of 0.6 mg/kg without a priming dose): tolerated
tolerability ([2]; 3 weekly doses of 1.0 mg/kg/day preceded by a priming dose of 0.1 mg/kg): tolerated
tolerated dose on escalation ([2]; Phase I, subcutaneous dose escalation): up to 3.0 mg/kg/dose
tolerability ([2]; Phase II, 3 mg/kg in naïve animals): not tolerated and led to clinical observations of morbidity or death within 1 day of dosing
tolerability ([2]; Phase II, 3 weekly administrations of 0.3 mg/kg): tolerated
survival of animals ([2]; Phase III, three weekly doses of 0.6 or 1.0 mg/kg/day): survived until scheduled sacrifice
sex differences in mean Cmax, AUC0-2, AUC0-8, AUC0-24 ([2]; monkeys): less than 2 fold
accumulation ([2]; multiple doses of 0.3 mg/kg/day): No accumulation
dose not tolerated (acute morbidity and/or death) ([2]; naïve animals): ≥ 3.0 mg/kg
cause of acute morbidity and/or death ([2]; ≥ 3.0 mg/kg, naïve animals): pulmonary edema
half-life [3]: > 120 min
responsiveness to PD-L1 antibody [4]: restored responsiveness to PD-L1 antibody
fraction unbound [5]: 0.511
efficacy (tumor growth and survival) [6]: suppressed tumor growth and prolonged mouth survival
efficacy (tumor growth and survival) [7]: suppressed tumor growth and prolonged mouth survival
efficacy (tumor growth and survival) ([8]; Compound A 0.5 mg/kg IT, days 5, 10, 14, 17, PD-L1 antibody 200 µg): suppressed tumor growth and prolonged mouth survival
tumor growth inhibition ([8]; intratumoral): highly effective in inhibiting tumor growth
number of metastases in the lung [9]: dramatically reduced
primary tumor volume [9]: significant reduction in tumor volume
bioavailability ([10]; sc, subcutaneous 0.5 mg/kg, male mice, subcutaneous AUC0-t vs intravenous AUC0-t, read-out: bioavailability (F)): 121%
clearance ([10]; mice, systemic compartment, read-out: clearance (CL) (converted)): 16.8 mL/min/kg
half-life ([10]; mice, read-out: t½): ~15 min
Vd ([10]; mice, read-out: volume of distribution (Vss)): 0.255 L/kg
tumor growth inhibition ([11]; intratumoral): highly effective in inhibiting tumor growth
anti-tumor efficacy ([11]; subcutaneous): also effective
mortality ([12]; 3.0 mg/kg dose level): Mortality was also seen
mortality ([12]; GLP rat study, high doses group 10 and 30 mg/kg): Mortality was seen
moribundity and death ([12]; mid and high dose levels, rat study): Moribundity and death was seen
toxicokinetic findings ([12]; rat and NHP toxicology studies, multiple dose): no sex related differences, dose proportionality, and no accumulation
cause of deaths ([12]; rat, highest dose levels): pulmonary edema
efficacious dose range (dose-dependent) [13]: 0.1 to 10 µg
tumor growth and survival ([13]; 0.005 mg/kg): sufficient to inhibit tumor growth and prolong survival
tumor volume ([13]; Compound A 0.1, 0.3 or 1.0 µg intratumoral, PD-L1 antibody 200 µg, FIG. 3 Panels A-C): significantly reduced tumor volume at all dose levels
survival time ([13]; Compound A 0.1, 0.3 or 1.0 µg intratumoral, PD-L1 antibody 200 µg, FIG. 3 Panels E-G): significantly increased the survival time
tumor growth inhibition ([13]; intratumoral): highly effective in inhibiting tumor growth
tumor growth and survival ([13]; intratumoral, compared to controls): dose-dependent suppression of tumor growth and prolonged survival
lowest dose with decreased tumor growth and prolonged survival ([13]; intratumoral, every 3-4 days, 4 doses (0.1 µg/mice)): 0.005 mg/kg
anti-tumor efficacy ([13]; subcutaneous): also effective
Frel in plasma ([14]; intratumoral 0.1 mg/kg): 105%
Frel in plasma ([14]; intratumoral 0.5 mg/kg): 112%
